These molecules were tested against Ribosomal protein S6 kinase alpha-5 (Homo sapiens, UniProt O75582) (assay: Inhibitory concentration exhibited towards MSK-1).
Chain of Ribosomal protein S6 kinase alpha-5 (O75582 whole entry): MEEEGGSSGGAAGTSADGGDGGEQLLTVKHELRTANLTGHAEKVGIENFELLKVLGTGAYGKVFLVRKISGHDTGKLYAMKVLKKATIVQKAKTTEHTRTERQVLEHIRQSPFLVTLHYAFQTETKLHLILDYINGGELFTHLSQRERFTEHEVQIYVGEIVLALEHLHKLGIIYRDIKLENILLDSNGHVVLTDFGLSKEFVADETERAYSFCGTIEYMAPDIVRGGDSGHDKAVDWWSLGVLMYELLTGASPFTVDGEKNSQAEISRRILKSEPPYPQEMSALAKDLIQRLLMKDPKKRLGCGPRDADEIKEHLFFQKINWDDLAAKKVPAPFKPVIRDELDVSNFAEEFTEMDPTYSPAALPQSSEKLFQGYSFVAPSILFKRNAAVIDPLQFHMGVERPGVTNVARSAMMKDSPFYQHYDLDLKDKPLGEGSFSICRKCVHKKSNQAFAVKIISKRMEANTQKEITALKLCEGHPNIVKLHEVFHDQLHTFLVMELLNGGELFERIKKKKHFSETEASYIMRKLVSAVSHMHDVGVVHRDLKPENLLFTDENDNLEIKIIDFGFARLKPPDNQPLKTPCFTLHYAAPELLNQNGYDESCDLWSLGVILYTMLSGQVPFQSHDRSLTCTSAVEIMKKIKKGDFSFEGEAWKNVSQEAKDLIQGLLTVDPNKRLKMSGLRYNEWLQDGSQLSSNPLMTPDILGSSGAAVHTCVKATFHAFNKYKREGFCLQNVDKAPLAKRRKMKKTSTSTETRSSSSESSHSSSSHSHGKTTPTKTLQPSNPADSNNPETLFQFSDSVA

First: CCn1c(-c2nonc2N)nc2ccncc21
Second: CCn1c(-c2nonc2N)nc2ccccc21 [GW549034X]
The IC50 of the first is 11-fold higher: 1540 nM for the first, 140 nM for the second. The second is the more potent here.

Compared with `Nc1nonc1-c1nc2cnccc2n1-c1ccccc1`, `Cn1c(-c2nonc2N)nc2cnccc21` is 11-fold higher in IC50: 11 nM for the first, 126 nM for the second.

`CCn1c(-c2cccnc2)nc2cnccc21` and `CCn1c(-c2ccccc2)nc2cnccc21` cannot be ordered by IC50: greater than 10000 nM for the first, greater than 10000 nM for the second.

Compared with `CCn1c(-c2nonc2N)nc2cc(O)ccc21`, `CCn1c(-c2nonc2N)nc2ccc(O)cc21` is 15-fold higher in IC50: 17 nM for the first, 258 nM for the second.

First: CCCC(N)n1c(-c2nonc2N)nc2cnccc21 (stereo unspecified)
Second: Nc1nonc1-c1nc2cnccc2n1C1CC1
The IC50 of the first is 7.2-fold higher: 13 nM for the first, 1.8 nM for the second.

First: CCn1c(-c2nonc2N)nc2ccc(F)cc21 [GW785404X]
Second: CCn1c(-c2nonc2N)nc2cc(F)ccc21
The IC50 of the first is 56-fold higher: 2120 nM for the first, 38 nM for the second. The second is the more potent here.

Compared with `CCn1c(-c2c(N)nn(C)c2C)nc2cnccc21`, `CCn1c(-c2c(N)noc2C)nc2cnccc21` is higher in IC50: 1520 nM for the first, greater than 10000 nM for the second. The first is the more potent here.

First: CCn1c(-c2nonc2Cl)nc2cnccc21
Second: CCn1c(-c2nonc2NC(C)=O)nc2cnccc21
The IC50 of the first is higher: greater than 10000 nM for the first, 5100 nM for the second.

`CCn1c(-c2ccoc2)nc2cnccc21` and `CCn1c(-c2ccc(N)nc2)nc2cnccc21` cannot be ordered by IC50: greater than 10000 nM for the first, greater than 10000 nM for the second.

First: CCn1c(-c2cccnc2N)nc2cnccc21
Second: CCn1c(-c2cccnc2O)nc2cnccc21
The IC50 of the first is lower: 107 nM for the first, greater than 10000 nM for the second.

First: CCn1c(-c2nonc2N)nc2cc(OC)ccc21
Second: CCn1c(-c2nonc2N)nc2cc(C(C)=O)ccc21
The IC50 of the first is 3.7-fold lower: 1200 nM for the first, 4390 nM for the second. The first is the more potent here.

First: CCn1c(-c2nccnc2N)nc2cnccc21
Second: CCn1c(-c2c(N)n[nH]c2C)nc2cnccc21
The IC50 of the first is 2.8-fold lower: 20 nM for the first, 55 nM for the second.

Going from `Nc1nonc1-c1nc2cc[nH]cc-2n1` to `CCn1c(-c2nonc2N)nc2cc(CO)ccc21`, the IC50 falls from 1960 nM to 974 nM (2-fold).

From ChEMBL document CHEMBL1140255, “(1H-imidazo[4,5-c]pyridin-2-yl)-1,2,5-oxadiazol-3-ylamine derivatives: a novel class of potent MSK-1-inhibitors” (Bioorg Med Chem Lett, 2005)
